{
  "source": "patent US10441548B2",
  "about": "“Aggregating microparticles for medical therapy” (GRAYBUG VISION, INC., priority 2015, dated 2019)",
  "experiment": "Acute non-GLP IVT ocular tolerability and toxicity study of sunitinib malate (free drug)",
  "type": "in vivo, pigmented rabbits",
  "conditions": "single bilateral IVT injection in PBS, up to 7 days",
  "method": "An acute, non-GLP IVT study was conducted to evaluate the ocular tolerability and toxicity of sunitinib malate (free drug) for up to 7 days following a single IVT injection. Sunitinib malate was formulated in phosphate buffered saline and injected bilaterally (0.1 mL) at 0.125 or 1.25 mg per eye.\nFIG. 13A, FIG. 13B, and FIG. 13C illustrate select PK profiles for sunitinib malate in the retina, vitreous, and plasma, respectively, from pigmented rabbits.",
  "data": [
    {"compound": "CCN(CC)CCNC(=O)c1c(C)[nH]c(/C=C2\\C(=O)Nc3ccc(F)cc32)c1C", "note": "[sunitinib malate]", "values": [
      {"measurement": "no-observed-adverse-effect-level (NOAEL) dose", "result": 0.125, "unit": "mg/eye"}
    ]}
  ]
}
